From ChEMBL document CHEMBL1125127 (J Med Chem, 1990)

Columns and labels:
[1] = test system: Canis familiaris; experiment: Concentration that causes a 20% increase in APD95 (action potential duration at 95% repolarization) from control value in anesthetized dogs; format: functional, Canis lupus familiaris
[2] = test system: Canis familiaris; experiment: Maximum change in […] from control value in anesthetized dogs; 10 uM.; format: functional, Canis lupus familiaris
[3] = target: Beta adrenergic receptor (Canis familiaris)
[4] = test system: Canis familiaris; experiment: Concentration at which maximum change in […] was observed from control value in anesthetized dogs; The maximum observed change APD95 from control value and concentration at 100 uM when this occurred; format: functional, Canis lupus familiaris
[5] = test system: Canis familiaris; experiment: Percent change in FRP from control at active dose 10-30 mg/kg administered intraperitoneally in anesthetized dogs; format: functional, Canis lupus familiaris
[6] = test system: Canis familiaris; experiment: Percent change in blood pressure (BP) from control at active dose 10-30 mg/kg administered intraperitoneally in anesthetized dogs; format: functional, Canis lupus familiaris
[7] = test system: Canis familiaris; experiment: Percent change in heart rate (HR) from control at active dose 10-30 mg/kg administered intraperitoneally; format: functional, Canis lupus familiaris
[8] = test system: Canis familiaris; experiment: Percent change in blood pressure (BP) from control at active dose 0.3-10 mg/kg administered intraperitoneally in anesthetized dogs; format: functional, Canis lupus familiaris
[9] = test system: Canis familiaris; experiment: Percent change in heart rate (HR) from control at active dose 0.3-10 mg/kg administered intraperitoneally in anesthetized dogs; format: functional, Canis lupus familiaris
[10] = test system: Canis familiaris; experiment: Percent change in FRP from control at active dose 0.3-10 mg/kg administered intraperitoneally; format: functional, Canis lupus familiaris
[11] = Ratio of number of active animals to number of treated at dose 1.0 mg/kg administered intraperitoneally in Epinephrine-induced model in anesthetized dogs; 4/4; format: functional; details: route intraperitoneal
[12] = Ratio of number of active animals to number of treated at dose 3.0 mg/kg administered intraperitoneally in Epinephrine-induced model in anesthetized dogs; 6/6; details: route intraperitoneal
[13] = test system: Canis familiaris; experiment: Concentration at which maximum change in […] was observed from control value in anesthetized dogs; The maximum observed change APD95 from control value and concentration at 30 uM when this occurred; format: functional, Canis lupus familiaris
[14] = target: Adrenergic receptor beta (Canis lupus familiaris); experiment: Tested for beta-receptor binding inhibition from canine ventricular tissue, using [3H]dihydroalprenolol as the radioligand in anesthetized dogs
[15] = target: Beta-1 adrenergic receptor (Canis familiaris)
[16] = test system: Canis familiaris; experiment: Percent change in FRP from control at active dose 10 mg/kg administered intraperitoneally in anesthetized dogs; format: functional, Canis lupus familiaris; details: route intraperitoneal
[17] = test system: Canis familiaris; experiment: Percent change in blood pressure (BP) from control at active dose 1.0-10 mg/kg administered intraperitoneally in anesthetized dogs; format: functional, Canis lupus familiaris
[18] = test system: Canis familiaris; experiment: Percent change in blood pressure (BP) from control at active dose 10 mg/kg administered intraperitoneally in anesthetized dogs; format: functional, Canis lupus familiaris; details: route intraperitoneal
[19] = test system: Canis familiaris; experiment: Percent change in heart rate (HR) from control at active dose 1.0-10 mg/kg administered intraperitoneally in anesthetized dogs; format: functional, Canis lupus familiaris
[20] = test system: Canis familiaris; experiment: Percent change in FRP from control at active dose 1.0-10 mg/kg administered intraperitoneally; format: functional, Canis lupus familiaris
[21] = Ratio of number of active animals to number of treated at dose 10 mg/kg administered intraperitoneally in anesthetized dogs; No of animals tested=2; format: functional; details: route intraperitoneal
[22] = Ratio of number of active animals to number of treated at dose 1.0 mg/kg administered intraperitoneally in Epinephrine-induced model in anesthetized dogs; 4/8; format: functional; details: route intraperitoneal
[23] = target: T1, Beta-2 adrenergic receptor (Canis lupus familiaris, UniProt P54833)
Description: Tested for Beta-2 adrenergic receptor selectivity in canine lung tissue in anesthetized dogs

[24] = test system: Canis familiaris; experiment: Percent change in heart rate (HR) from control at active dose 10 mg/kg administered intraduodenally; details: route intraduodenal
[25] = Ratio of number of active animals to number of treated at dose 1.0-10 mg/kg administered intravenously in PES model in conscious dogs; 5/6
[26] = Ratio of number of active animals to number of treated administered intraperitoneally in Epinephrine-induced model in anesthetized dogs; 4/8; details: route intraperitoneal
[27] = target: T1, Beta-2 adrenergic receptor; experiment: Beta2-receptor selectivity in canine lung tissue in anesthetized dogs; format: functional
[28] = target: Beta-1 adrenergic receptor (Canis lupus familiaris); experiment: Tested for beta1-receptor selectivity in canine cardiac tissue in anesthetized dogs
[29] = Ratio of number of active animals to number of treated at dose 10-30 mg/kg administered intraperitoneally in anesthetized dogs; No of animals tested=2; format: functional
[30] = test system: Canis familiaris; experiment: Percent change in heart rate (HR) from control at active dose 10-30 mg/kg administered intraduodenally
[31] = Ratio of number of active animals to number of treated at dose 10-30 mg/kg administered intraperitoneally in anesthetized dogs; No of animals tested=3; format: functional
[32] = test system: Canis familiaris; experiment: Concentration at which maximum change in […] was observed from control value in anesthetized dogs; The maximum observed change APD95 from control value and concentration at 10 uM when this occurred; format: functional, Canis lupus familiaris
[33] = test system: Canis familiaris; experiment: Percent change in heart rate (HR) from control at active dose 10 mg/kg administered intraduodenally; details: route intraduodenal; remark: listed apart in the source
[34] = test system: Canis familiaris; experiment: Percent change in FRP from control at active dose 30 mg/kg administered intraperitoneally in anesthetized dogs; format: functional, Canis lupus familiaris; details: route intraperitoneal
[35] = test system: Canis familiaris; experiment: Percent change in blood pressure (BP) from control at active dose 30 mg/kg administered intraperitoneally in anesthetized dogs; format: functional, Canis lupus familiaris; details: route intraperitoneal
[36] = Ratio of number of active animals to number of treated at dose 30 mg/kg administered intraperitoneally in anesthetized dogs; No of animals tested=2; format: functional; details: route intraperitoneal
[37] = test system: Canis familiaris; experiment: Percent change in heart rate (HR) from control at active dose 30 mg/kg administered intraduodenally; details: route intraduodenal

T1 sequence (P54833 whole entry): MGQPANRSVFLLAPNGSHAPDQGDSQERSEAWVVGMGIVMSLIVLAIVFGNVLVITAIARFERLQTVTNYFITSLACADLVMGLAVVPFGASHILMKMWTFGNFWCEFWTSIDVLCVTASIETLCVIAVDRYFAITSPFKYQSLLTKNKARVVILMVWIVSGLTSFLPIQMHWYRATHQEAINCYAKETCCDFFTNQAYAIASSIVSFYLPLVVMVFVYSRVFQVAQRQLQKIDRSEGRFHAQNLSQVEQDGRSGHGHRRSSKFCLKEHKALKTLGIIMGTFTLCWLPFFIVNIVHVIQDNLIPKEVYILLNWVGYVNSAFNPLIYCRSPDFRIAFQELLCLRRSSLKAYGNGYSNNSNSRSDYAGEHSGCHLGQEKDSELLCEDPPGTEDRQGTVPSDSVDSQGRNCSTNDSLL

COCCc1ccc(OCC(O)CNCCNC(=O)c2ccc(-n3ccnc3)cc2)cc1 (stereo unspecified)
C20 [1]: <1.4 µM
Max delta [2]: 70%
IC50 [3]: 12.4 µM

CS(=O)(=O)Nc1ccc(C(=O)N2CCN(CC(O)COc3ccccc3)CC2)cc1 (stereo unspecified)
C20 [1]: <1 µM
Max delta [2]: 88%
IC50 [3]: 12.2 µM

CC(C)NCC(O)c1ccc(NS(C)(=O)=O)cc1 (stereo unspecified) [SOTALOL]
C20 [1]: 14.4 µM
Max delta [4]: 48%
Change [5]: 17%
Change [6]: 9%
Change [7]: -10%
Change [8]: 8%
Change [9]: -6%
Change [10]: 14%
No. of active/no. of tested [11]: 4
No. of active/no. of tested [12]: 6

COc1ccccc1C(O)CNCCOc1ccc(-n2ccnc2)cc1 (stereo unspecified)
C20 APD95 [1]: 10.4 µM
Max delta [13]: 33%
IC50 [14]: 3.7 µM

CS(=O)(=O)Nc1ccc(OCC(O)CNCc2ccc(-n3ccnc3)cc2)cc1 (stereo unspecified)
C20 [1]: 1.8 µM
Max delta [13]: 67%
IC50 [15]: 33.1 µM

Cc1ccccc1OCC(O)CN1CCN(c2ccc(NS(C)(=O)=O)cc2)CC1 (stereo unspecified)
Change [16]: 13%
C20 [1]: <4.5 µM
Max delta [2]: 53%
Change [17]: 13%
Change [18]: 11%
Change [19]: -3%
Change [20]: 8%
Ratio [21]: 2
No. effective [22]: 4
IC50 [15]: 3.3 µM
IC50 [23]: 6.6 µM
IC50 [3]: 2.3 µM
Change [24]: -11%
No. effective [25]: 5
Ratio [26]: 0.5

OC(CNCCOc1ccc(-n2ccnc2)cc1)COc1ccccc1 (stereo unspecified)
IC50 [27]: 0.28 µM
C20 APD95 [1]: 8.8 µM
Max delta [2]: 21%
IC50 [28]: 0.04 µM
IC50 [14]: 0.04 µM

COCCc1ccc(OCC(O)CNCCOc2ccc(-n3ccnc3)cc2)cc1 (stereo unspecified)
IC50 [27]: 4.5 µM
C20 APD95 [1]: 14.8 µM
Max delta [4]: 89%

CS(=O)(=O)Nc1ccc(C(=O)N2CCN(CC(O)COc3cccc4ccccc34)CC2)cc1 (stereo unspecified)
C20 [1]: 0.5 µM
Max delta [2]: 55%
Change [5]: 19%
Change [6]: 5%
No. effective [29]: 2
IC50 [3]: 30.9 µM
Change [30]: -25%

COCCc1ccc(OCC(O)CN2CCN(c3ccc(NS(C)(=O)=O)cc3)CC2)cc1 (stereo unspecified)
C20 [1]: 3.2 µM
Max delta [2]: 76%
Change [5]: 15%
Change [6]: 9%
No. effective [31]: 3
IC50 [3]: 109 µM
Change [30]: -12%

COCCc1ccc(OCC(O)CNCc2ccc(NS(C)(=O)=O)cc2)cc1 (stereo unspecified)
C20 [1]: 0.5 µM
Max delta [2]: 57%
IC50 [15]: 7.3 µM
IC50 [23]: 46 µM
IC50 [3]: 25.8 µM

CS(=O)(=O)Nc1ccc(C(=O)NCCNCC(O)COc2ccccc2C#N)cc1 (stereo unspecified)
C20 [1]: 23.7 µM
Max delta [13]: 31%
IC50 [3]: 2.9 µM

CS(=O)(=O)Nc1ccc(N2CCN(CC(O)COc3cccc4c3CCCC4=O)CC2)cc1 (stereo unspecified)
Change [16]: 12%
C20 [1]: 1.9 µM
Max delta [32]: 48%
Change [18]: 18%
Ratio [21]: 1
IC50 [3]: 8.4 µM
Change [33]: -1%

CS(=O)(=O)Nc1ccc(OCC(O)CNCCNC(=O)c2ccc(-n3ccnc3)cc2)cc1 (stereo unspecified)
C20 [1]: 5.8 µM
Max delta [4]: 58%
Change [34]: 14%
Change [35]: 30%
Ratio [36]: 1
IC50 [3]: 227 µM
Change [37]: -18%
